Test system: Meth-A fibrosarcoma cells
Experiment: Inhibition of growth of Meth-A fibrosarcoma in mice (compound mixed with tumor cells)
Assay type: in vivo
Settings: 100 μg mixed with 5×10^4 Meth-A fibrosarcoma cells, intracutaneous, female Balb/C mice
Procedure: For example, 100 μg of the compounds obtained in accordance with the present invention suspended in a phosphate-buffered saline and mixed with 5×10^4 Meth-A fibrosarcoma cells, followed by intracutaneous administration to female Balb/C mice. The effects to inhibit the growth of Meth-A were examined at 1 week intervals until the 4th week after the administration.

Measured: The number of tumor-free mice/the number of mice tested

2-(2-acetamido-2,6-dideoxy-6-mycoloylamino-D-glucopyranos-3-O-yl)-D-propionyl-L-alanyl-D-isoglutamine [Example 7]
10/10: week 2 | week 3 | week 4

2-(2-acetamido-2,6-dideoxy-6-mycoloylamino-D-glucopyranos-3-O-yl)-D-propionyl-L-valyl-D-isoglutamine [Example 9]
10/10: week 1 | week 2 | week 3 | week 4

— patent publication US4314998A, “6-Deoxyglucosamine-peptide derivatives, their production and use” (Takeda Chemical Industries, Ltd., priority 1979, dated 1982)
